melting point: 76 to 78 °C
Compound: Cc1c(C(=O)c2cnn(C)c2O)ccc(S(C)(=O)=O)c1C1=NOC(CCl)C1 (stereo not shown) [Compound 2.1, 4-[2-Methyl-3-(5-chloromethyl-4,5-dihydroisoxazol-3-yl)-4-methyl-sulfonylbenzoyl]-5-hydroxy-1-methyl-1H-pyrazole]

— patent US6613719B1, “3-(4,5-dihydroisoxazol-3-yl)-substituted benzoylpyrazoles” (BASF Aktiengesellschaft, priority 1999, dated 2003)
